From ChEMBL document CHEMBL1201862, “PubChem BioAssay data set” (2004) come the findings set out here.

Calls of active or inactive are those of the source. Bounds are passed on as bounds.

The target of assay [1] is T1, C-C chemokine receptor type 6 (Homo sapiens, UniProt P51684).
T1 sequence (P51684 whole entry): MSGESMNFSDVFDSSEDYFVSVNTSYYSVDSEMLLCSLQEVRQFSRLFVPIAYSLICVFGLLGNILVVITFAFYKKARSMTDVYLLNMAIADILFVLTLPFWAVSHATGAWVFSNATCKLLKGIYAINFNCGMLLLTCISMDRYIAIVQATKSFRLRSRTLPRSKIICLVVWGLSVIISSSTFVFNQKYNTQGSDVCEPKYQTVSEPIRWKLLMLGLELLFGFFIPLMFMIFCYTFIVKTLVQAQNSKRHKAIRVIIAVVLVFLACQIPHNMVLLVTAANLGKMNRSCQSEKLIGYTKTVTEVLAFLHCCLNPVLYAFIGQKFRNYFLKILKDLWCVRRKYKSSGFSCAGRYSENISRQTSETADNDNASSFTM
In words: CCR6 receptor antagonists, dose response, cell-based, luminescent beta-arrestin readout (AID 504728). In kind it is functional.

The target in assay [2] is T2, Rac GTPase-activating protein 1 (Homo sapiens, UniProt Q9H0H5).
T2 sequence (Q9H0H5 whole entry): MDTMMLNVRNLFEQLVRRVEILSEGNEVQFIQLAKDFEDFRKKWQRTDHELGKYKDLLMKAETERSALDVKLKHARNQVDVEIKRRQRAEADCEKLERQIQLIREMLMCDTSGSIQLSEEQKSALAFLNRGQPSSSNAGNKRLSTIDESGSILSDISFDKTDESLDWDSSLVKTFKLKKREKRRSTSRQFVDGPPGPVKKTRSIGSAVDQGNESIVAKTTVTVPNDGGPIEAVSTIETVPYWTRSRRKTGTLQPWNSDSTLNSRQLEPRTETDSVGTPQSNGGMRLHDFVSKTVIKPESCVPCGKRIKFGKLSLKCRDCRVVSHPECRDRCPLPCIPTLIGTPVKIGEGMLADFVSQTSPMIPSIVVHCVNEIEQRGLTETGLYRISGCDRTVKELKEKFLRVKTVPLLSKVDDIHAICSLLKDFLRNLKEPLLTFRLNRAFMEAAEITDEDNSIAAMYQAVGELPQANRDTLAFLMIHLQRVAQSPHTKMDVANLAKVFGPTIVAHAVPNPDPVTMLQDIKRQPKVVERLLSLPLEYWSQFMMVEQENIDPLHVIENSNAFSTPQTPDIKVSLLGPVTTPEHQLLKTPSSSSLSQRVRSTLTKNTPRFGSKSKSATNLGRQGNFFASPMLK
Put plainly: MgcRacGAP GTPase-activating activity inhibitors, confirmation, biochemical, ADP Hunter fluorescence, primary and confirmatory (AID 624330). In kind it is functional.

In assay [3] the target is T3, Sentrin-specific protease 6 (Homo sapiens, UniProt Q9GZR1).
T3 sequence (Q9GZR1 whole entry): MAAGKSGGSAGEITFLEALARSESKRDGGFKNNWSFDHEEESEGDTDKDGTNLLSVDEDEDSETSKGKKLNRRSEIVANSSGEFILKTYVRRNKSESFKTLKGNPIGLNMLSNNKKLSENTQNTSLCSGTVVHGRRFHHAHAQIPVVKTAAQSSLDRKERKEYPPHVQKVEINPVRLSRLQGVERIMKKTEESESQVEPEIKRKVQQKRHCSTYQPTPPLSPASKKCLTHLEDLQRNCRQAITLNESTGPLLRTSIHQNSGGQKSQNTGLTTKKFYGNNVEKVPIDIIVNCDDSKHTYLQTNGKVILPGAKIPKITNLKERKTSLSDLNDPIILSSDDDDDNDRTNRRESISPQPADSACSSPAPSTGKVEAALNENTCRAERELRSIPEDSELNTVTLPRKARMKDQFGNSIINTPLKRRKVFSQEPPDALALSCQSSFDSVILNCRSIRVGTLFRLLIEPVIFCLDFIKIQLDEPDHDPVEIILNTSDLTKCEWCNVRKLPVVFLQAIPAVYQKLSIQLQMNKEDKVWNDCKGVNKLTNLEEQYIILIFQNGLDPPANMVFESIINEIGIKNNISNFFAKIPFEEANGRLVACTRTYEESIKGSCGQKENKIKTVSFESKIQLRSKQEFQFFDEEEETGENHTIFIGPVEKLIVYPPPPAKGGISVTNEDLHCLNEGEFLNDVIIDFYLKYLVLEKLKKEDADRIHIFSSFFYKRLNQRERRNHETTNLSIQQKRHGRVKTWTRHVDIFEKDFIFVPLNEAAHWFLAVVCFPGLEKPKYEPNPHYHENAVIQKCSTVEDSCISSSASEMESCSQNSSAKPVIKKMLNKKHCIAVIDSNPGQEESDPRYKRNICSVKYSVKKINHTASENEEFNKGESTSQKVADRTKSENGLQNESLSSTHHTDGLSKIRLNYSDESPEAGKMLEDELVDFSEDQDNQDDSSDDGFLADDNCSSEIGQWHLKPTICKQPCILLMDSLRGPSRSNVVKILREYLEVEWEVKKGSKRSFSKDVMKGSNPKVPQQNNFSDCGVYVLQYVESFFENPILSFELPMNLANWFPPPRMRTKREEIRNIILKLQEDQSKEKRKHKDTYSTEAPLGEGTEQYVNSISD
Put plainly: SAR Analysis of small molecule inhibitors of Sentrin-specific protease 6 (SENP6) using a Luminescent assay. [Related pubchem assays (depositor defined):AID2582, AID2599]. In kind it is functional.

For assay [4], the target named is Receptor tyrosine-protein kinase erbB-2 (Homo sapiens, UniProt P04626). Put plainly: Navigating the Kinome. Panel member name: ERBB2. In kind it is functional.
Receptor tyrosine-protein kinase erbB-2, sequence (P04626 whole entry): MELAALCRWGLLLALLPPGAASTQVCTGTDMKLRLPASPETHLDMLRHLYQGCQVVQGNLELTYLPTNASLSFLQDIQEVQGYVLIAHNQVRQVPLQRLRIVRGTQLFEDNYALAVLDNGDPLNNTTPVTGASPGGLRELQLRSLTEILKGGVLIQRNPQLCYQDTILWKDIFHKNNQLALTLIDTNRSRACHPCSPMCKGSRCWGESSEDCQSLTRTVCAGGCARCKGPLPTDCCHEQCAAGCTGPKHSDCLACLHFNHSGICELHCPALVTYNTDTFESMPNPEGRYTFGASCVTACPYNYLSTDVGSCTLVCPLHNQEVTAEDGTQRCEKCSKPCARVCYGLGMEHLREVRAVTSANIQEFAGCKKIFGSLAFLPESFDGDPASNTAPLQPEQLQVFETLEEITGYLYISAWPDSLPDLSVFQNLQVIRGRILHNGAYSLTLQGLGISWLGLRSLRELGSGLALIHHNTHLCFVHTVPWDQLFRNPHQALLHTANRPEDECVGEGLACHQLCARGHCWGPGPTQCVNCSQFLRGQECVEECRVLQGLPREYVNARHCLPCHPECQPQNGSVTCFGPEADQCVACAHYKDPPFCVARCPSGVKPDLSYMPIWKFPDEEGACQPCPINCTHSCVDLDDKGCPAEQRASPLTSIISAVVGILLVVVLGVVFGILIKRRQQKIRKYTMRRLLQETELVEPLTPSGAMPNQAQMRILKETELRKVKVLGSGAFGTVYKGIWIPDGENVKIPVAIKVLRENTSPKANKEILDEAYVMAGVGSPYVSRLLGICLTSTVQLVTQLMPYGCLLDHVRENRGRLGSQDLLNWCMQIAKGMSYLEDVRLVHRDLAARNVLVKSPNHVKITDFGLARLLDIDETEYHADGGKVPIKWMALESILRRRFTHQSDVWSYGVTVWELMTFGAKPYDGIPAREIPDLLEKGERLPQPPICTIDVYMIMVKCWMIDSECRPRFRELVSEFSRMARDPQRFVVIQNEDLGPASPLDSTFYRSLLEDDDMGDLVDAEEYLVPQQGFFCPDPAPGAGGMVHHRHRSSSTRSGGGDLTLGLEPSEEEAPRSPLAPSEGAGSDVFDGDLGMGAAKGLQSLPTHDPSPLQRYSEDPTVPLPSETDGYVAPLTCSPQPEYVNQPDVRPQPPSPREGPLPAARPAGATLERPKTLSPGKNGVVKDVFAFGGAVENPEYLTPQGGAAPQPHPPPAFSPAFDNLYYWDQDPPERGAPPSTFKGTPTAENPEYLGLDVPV
Assay [5] addresses Interleukin-1 receptor-associated kinase 4 (Homo sapiens, UniProt Q9NWZ3). In kind it is functional.
The target in assay [6] is BDNF/NT-3 growth factors receptor (Homo sapiens, UniProt Q16620). In kind it is functional.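 Note: NTRK2 measured as one member of a broad kinome-wide kinase profiling panel.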
BDNF/NT-3 growth factors receptor, sequence (Q16620 whole entry): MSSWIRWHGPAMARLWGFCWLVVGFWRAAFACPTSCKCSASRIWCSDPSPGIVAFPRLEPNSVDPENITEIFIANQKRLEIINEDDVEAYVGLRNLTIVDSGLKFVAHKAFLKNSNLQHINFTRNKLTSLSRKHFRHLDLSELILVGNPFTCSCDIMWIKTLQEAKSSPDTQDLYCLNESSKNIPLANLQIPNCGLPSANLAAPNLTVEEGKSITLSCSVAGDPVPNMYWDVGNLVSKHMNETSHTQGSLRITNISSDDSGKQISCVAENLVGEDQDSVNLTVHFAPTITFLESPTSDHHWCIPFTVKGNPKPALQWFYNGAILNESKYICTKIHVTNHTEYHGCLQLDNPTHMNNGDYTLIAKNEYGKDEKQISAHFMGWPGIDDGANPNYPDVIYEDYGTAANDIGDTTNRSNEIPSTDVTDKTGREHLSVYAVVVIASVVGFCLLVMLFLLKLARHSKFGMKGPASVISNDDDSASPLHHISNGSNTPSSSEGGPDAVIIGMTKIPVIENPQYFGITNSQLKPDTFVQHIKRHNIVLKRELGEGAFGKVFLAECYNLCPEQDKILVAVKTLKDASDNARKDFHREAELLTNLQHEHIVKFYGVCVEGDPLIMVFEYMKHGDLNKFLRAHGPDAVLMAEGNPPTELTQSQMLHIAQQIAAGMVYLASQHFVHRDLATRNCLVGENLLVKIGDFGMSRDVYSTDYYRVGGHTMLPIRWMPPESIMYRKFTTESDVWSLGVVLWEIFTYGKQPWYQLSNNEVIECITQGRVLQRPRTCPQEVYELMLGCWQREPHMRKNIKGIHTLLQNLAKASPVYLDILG
Assay [7] addresses Proto-oncogene tyrosine-protein kinase ROS (Homo sapiens, UniProt P08922). It is filed as functional.
In assay [8] the target is Testis-specific serine/threonine-protein kinase 2 (Homo sapiens, UniProt Q96PF2). It is filed as functional.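 Note: part of the Navigating the Kinome panel, target entry STK22B.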
Testis-specific serine/threonine-protein kinase 2, sequence (Q96PF2 whole entry): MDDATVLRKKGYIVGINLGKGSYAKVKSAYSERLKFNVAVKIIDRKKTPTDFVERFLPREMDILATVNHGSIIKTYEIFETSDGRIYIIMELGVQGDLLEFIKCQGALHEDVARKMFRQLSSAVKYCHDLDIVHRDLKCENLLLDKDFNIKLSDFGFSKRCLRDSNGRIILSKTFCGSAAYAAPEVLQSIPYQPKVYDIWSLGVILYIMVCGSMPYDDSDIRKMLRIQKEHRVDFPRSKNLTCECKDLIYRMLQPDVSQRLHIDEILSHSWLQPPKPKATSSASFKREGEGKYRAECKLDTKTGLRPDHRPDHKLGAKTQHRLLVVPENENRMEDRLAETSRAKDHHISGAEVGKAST
Assay [9] deals with cAMP-dependent protein kinase catalytic subunit alpha (Homo sapiens, UniProt P17612). It is filed as functional.
The target in assay [10] is Dual specificity tyrosine-phosphorylation-regulated kinase 3 (Homo sapiens, UniProt O43781). It is filed as functional.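 Note: measured as one member of a broad kinase panel.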
Dual specificity tyrosine-phosphorylation-regulated kinase 3, sequence (O43781 whole entry): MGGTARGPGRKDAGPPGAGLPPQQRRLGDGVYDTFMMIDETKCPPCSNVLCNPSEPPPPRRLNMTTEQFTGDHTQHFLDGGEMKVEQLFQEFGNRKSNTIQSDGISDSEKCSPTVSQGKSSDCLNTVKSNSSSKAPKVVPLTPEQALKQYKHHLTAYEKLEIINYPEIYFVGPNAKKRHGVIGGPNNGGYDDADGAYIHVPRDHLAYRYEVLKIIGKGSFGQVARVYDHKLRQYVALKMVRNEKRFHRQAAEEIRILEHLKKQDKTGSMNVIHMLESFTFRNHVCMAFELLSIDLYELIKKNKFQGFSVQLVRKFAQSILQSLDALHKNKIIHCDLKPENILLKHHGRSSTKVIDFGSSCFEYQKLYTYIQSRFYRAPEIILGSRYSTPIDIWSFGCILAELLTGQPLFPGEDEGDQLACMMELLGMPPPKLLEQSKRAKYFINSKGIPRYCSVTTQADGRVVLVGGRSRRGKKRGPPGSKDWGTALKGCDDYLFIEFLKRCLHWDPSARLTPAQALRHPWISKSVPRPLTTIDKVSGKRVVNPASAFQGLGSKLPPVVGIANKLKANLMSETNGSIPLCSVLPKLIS
The target of assay [11] is Tyrosine-protein kinase SYK (Homo sapiens, UniProt P43405). In kind it is functional.
Assay [12] deals with Non-receptor tyrosine-protein kinase TYK2 (Homo sapiens, UniProt P29597). In kind it is functional.
Non-receptor tyrosine-protein kinase TYK2, sequence (P29597 whole entry): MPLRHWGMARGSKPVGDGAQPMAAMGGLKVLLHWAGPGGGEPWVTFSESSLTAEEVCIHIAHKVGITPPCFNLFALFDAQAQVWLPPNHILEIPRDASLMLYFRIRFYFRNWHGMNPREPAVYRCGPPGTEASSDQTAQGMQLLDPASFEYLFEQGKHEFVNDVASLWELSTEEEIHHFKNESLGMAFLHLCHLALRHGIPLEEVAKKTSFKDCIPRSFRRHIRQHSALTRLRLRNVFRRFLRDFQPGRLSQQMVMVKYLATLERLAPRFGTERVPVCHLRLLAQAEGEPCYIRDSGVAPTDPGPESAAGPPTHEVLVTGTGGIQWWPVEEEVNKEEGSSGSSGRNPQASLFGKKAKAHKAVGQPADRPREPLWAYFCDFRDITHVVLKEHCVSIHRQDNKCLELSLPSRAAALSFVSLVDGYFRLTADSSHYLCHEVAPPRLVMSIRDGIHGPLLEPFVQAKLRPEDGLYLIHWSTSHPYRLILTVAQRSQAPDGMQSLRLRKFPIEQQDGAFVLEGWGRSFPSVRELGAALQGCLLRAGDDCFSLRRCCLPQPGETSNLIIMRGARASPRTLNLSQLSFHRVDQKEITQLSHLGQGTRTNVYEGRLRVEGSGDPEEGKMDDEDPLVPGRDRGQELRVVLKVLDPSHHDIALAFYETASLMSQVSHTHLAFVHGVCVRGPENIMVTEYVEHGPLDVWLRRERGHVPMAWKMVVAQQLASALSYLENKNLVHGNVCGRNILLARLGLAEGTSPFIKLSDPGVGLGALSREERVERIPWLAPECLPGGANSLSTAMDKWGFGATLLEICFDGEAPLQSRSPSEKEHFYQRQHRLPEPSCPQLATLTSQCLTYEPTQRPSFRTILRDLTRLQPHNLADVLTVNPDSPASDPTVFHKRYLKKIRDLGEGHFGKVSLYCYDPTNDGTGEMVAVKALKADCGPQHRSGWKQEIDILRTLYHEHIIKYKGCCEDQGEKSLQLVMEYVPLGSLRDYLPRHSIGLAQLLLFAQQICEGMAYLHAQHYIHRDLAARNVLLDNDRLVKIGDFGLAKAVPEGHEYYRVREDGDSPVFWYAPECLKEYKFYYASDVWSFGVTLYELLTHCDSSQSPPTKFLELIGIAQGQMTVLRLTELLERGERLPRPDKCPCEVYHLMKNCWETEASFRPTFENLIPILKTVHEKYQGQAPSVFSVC
A short description of assay [13]: cells.
Assay [14] deals with Delta-type opioid receptor (Homo sapiens, UniProt P41143). In words: HTS Image-Based Screen for Antagonists of the DOR Receptor. [Related pubchem assays (depositor defined):AID1777, AID1785, AID1786, AID2133]. It is filed as functional.
Delta-type opioid receptor, sequence (P41143 whole entry): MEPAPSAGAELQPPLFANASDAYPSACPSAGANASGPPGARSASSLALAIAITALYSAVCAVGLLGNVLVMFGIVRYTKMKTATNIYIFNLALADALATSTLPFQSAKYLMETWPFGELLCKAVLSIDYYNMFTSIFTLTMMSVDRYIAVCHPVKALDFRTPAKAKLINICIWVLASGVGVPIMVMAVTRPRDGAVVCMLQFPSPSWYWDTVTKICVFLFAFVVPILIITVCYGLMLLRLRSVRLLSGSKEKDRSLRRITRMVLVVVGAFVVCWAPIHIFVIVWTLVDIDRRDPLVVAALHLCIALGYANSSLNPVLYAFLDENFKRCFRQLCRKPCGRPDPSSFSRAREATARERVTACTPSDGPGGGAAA
Assay [15] is described as follows: cytotoxicity in HEK-293T cells, dose response, cytotoxicity control for TCR NF-kB inhibitor project, luminescence, T-cell screen hits (AID 489026).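 Note: cells exposed to compound about 14 hours before the viability readout.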 In kind it is functional, cell-based.

A word on the IC50: it is the concentration needed to halve the response being measured. As a reminder, the Ki is a measure of affinity in units of concentration, obtained from inhibition or displacement. As a reminder, the EC50 is the concentration at which the effect is half-maximal.
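Throughout, for EC50: potency for inhibition of parasite growth.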

Interleukin-1 receptor-associated kinase 4, sequence (Q9NWZ3 whole entry): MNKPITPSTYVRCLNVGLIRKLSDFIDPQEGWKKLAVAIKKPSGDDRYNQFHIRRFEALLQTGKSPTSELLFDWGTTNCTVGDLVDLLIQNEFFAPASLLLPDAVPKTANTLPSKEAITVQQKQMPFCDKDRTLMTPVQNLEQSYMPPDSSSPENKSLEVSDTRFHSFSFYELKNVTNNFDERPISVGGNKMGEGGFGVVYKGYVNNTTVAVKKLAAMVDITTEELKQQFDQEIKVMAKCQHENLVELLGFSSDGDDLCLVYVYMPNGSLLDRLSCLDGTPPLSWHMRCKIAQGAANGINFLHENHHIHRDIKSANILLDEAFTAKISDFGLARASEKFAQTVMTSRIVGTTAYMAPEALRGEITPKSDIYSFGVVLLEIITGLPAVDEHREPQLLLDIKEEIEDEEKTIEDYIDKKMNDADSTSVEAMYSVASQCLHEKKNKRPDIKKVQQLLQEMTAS

Regarding `CN(C)c1ncc(C2=C(Cl)C(=O)C(N3CCCC3)=C(Cl)C2=O)s1`, the IC50 in [1] is > 66.6 µM (inactive); in assay [2], 89.5 µM (active).

For the compound `Cc1cnc(NC(=O)c2sc3ccccc3c2Cl)s1`, the half-maximal inhibitory concentration (IC50) in assay [3] was 3.95 µM (active).

For the compound `O=C1NC(=S)SC1=C1C(=O)Nc2ccc(Br)cc21`, the Ki in assay [4] is > 1.58 µM (inactive); in assay [5], 7.94 µM (active); in [6], > 5.01 µM (inactive); in assay [7], > 2 µM (inactive); in [8], > 1.58 µM (inactive); in assay [9] it was > 7.94 µM (inactive). For the same compound, the Ki was > 6.31 µM (inactive) in assay [10], 0.794 µM (active) in assay [11] and > 2 µM (inactive) in [12].

As to `Cc1ccc(Nc2cc(C)nn2-c2nc(C)cc(O)n2)cc1`, in assay [13], the EC50 is 0.074 µM (active). For the same compound, the results for the IC50 in assay [14] and in assay [15] were > 32 µM (inactive) and > 80 µM (inactive), respectively.
